Patent US6297230A, “Cyanoaziridines for treating cancer” (priority 2000, dated 2001)
Values after ≈ are worked out from the molar mass of the structure shown. “Also recorded” adds a separate entry of the source. Read-outs that look alike come from different tables or passages of the source.

How the values were obtained:
Assay type in all cases: cell-based, human
[1] = test system: OVCAR-3 ovarian carcinoma cells; assay: In vitro antitumor activity, OVCAR-3 ovarian; details: OVCAR3 ovarian
Text: (§1) 1) in vitro tumor cell viability assays using MTT and SRB dye reaction endpoints.
(§2) Sulforhodamine B (SRB) Assay for Adherent Tumor Cells
(§3) Sulforhodamine B (SRB) is a protein binding aminoxanthene dye with two sulfonic acid groups. (Lillie, R. D., H. J. Conn's Biological Stains, 9th Ed., Baltimore; Williams & Wilkins, 1977.) It quantitates whole cell protein content by the intensity of dye staining and relates this to the number of viable cells. […] The SRB assay is used for cells which normally adhere to surfaces (in this case plastic culture flasks or petri dishes) as part of their requirement for growth and division in vitro. The SRB assay is currently used by the National Cancer Institute in the anticancer drug screening program. (Skehan, et al., J Natl Cancer Inst 82:1107-1112, 1990; Rubinstein, et al., J Natl Cancer Inst 82:1113-1118, 1990.) Methodologic comparisons have shown that SRB results are linear for the number of tumor cells over a 100-fold range, and for protein content determined by a modified Lowry method or Standard Bradford (Bradford, M., Anal Biochem 72:248-254, 1976) methods. […] (Lillie, R. D., H. J. Conn's Biological Stains, 9th Ed., Baltimore; Williams & Wilkins, 1977.)
(§4) Cell cultures of 10^3 -10^7 cells growing in 96-well plastic microtiter plates are fixed with 50% trichloroacetic acid (TCA) for 30 minutes at 4° C. The cells are then stained with 0.4% (w/v) sulforhodamine B (SRB) dissolved in 1% acetic acid. Unbound dye is removed by 4 washes with 1% acetic acid, and protein-bound dye is extracted with 10 mM unbuffered Tris® base [tris(hydroxymethyl)aminomethane]. The optical density (OD) of this extracted solution is measured at […] in a microtiter plate ultraviolet absorbance detector. Cell viability is expressed as percent of control by dividing the optical densities and multiplying the result by 100.
(§5) Microculture Tetrazolium (MTT) Assay for Tumor Cells
(§6) Tumors are disaggregated into single cell suspensions using mechanical, hypoosmotic, and/or enzymatic (trypsin) methods. The cells are plated at a concentration of 3-5×10^4 per […] well into plastic 96-well plates. Growth medium containing 5-10% (vol/vol) heat-inactivated fetal bovine serum and penicillin/streptomycin (both […]) are added prior to incubation at 37° C. for 6 days. Afterwards the medium containing the drug is removed, the cells are centrifuged in fresh medium or phosphate-buffered saline (pH 7.4). A tetrazolium dye, […]-2,5-diphenyl tetrazolium (MTT), is then added. (Mossman, T., J Immunol 65:55-63, 1983.) This dye forms a colored formazan product upon activation by mitochondrial reductases in viable cells. Typically, the formazan product is solubilized in acid-propanol or DMSO. The intensity of the color is proportional to viable cell numbers and this is quantitated by spectrophotometric absorbance at 570 nm on a micro ELISA plate reader. The results are calibrated in % control absorbance from untreated tumor cells. (Alley, et al., Cancer Res 48:589-601, 1988.)
(§7) Table 3 gives the potencies of the new aziridine-1-carboxamides in a panel of human and murine tumor cells in culture. The tumor cell lines in this table are selected to represent a range of histological and growth phenotypes. Their characteristics are described below.
5.0 Human OVCAR-3 Ovarian Carcinoma was originally isolated by Hamilton, et al. Experimental model systems of ovarian cancer; applications to the design and evaluation of new treatment approaches. Seminar in Onocology, 11:285-298, 1984, from a patient with progressive adenocarcinoma of the ovary. This patient had relapsed after receiving a combination chemotherapy regimen containing cyclophosphamide, doxorubicin and cisplatin. […] It is also one of the standard human tumor cell lines used for screening new anticancer agents at the NCI. (Alley, et al., Cancer Res 48:589-601, 1988.)

8226/I-R myeloma cells = assay: MTT growth inhibition, imexon-resistant 8226 myeloma cells; details: for IC50 / Fold Resistance of IC50 R/IC50 's: Table 5; for IC50: imexon-resistant 8226; for Fold Resistance of IC50 R/IC50 's: imexon-resistant vs sensitive 8226
Method in brief: (§8)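 Parental 8226/S and imexon-resistant 8226/I-R myeloma cells (selected with imexon up to 3.25 mg/mL) were exposed to drug continuously for 10 days at 37 °C. Viability was measured by MTT absorbance at 570 nm relative to untreated controls. IC50 was taken as the concentration giving 50% growth inhibition, from at least 2 assays.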

[2] = test system: A-375 malignant melanoma cells; assay: In vitro antitumor activity, A-375 melanoma
Text: as §1, §2, §3, §4, §5, §6, §7
4.0 The Human A-375 Malignant Melanoma Cell Line was also developed by Girard, et al. (Girard, et al., J Natl Cancer Inst 51(5):1417-1423, 1973) from a human with advanced melanoma. The modal chromosome number is 67 and it has a low plating (colony forming) efficiency of 0.7% when grown on agar. These cells also form rapidly growing tumors when injected subcutaneously into immunodeficient athymic (nu/nu) mice. (Girard, et al., J Natl Cancer Inst 51(5):1417-1423, 1973.) These cells are also used in the NCI drug screening panel. (Skehan, et al., J Natl Cancer Inst 82:1107-1112, 1990.)

8226/S myeloma cells = assay: MTT growth inhibition, parental 8226 myeloma cells; details: for IC50: Table 5, Sensitive (parental) 8226
Method in brief: as §8

[3] = Homo sapiens, OVCAR-3, read-out: IC50

With N#CC1CN1C(=O)Nc1cccc2ccccc12 (stereo not drawn) [AMP 423, 2-Cyanoaziridine-1-[N-(1-naphthyl)]carboxamide] the IC50 [1, 3] was 1.4 µg/mL, the IC50 (8226/I-R myeloma cells; Homo sapiens, read-out: IC50) was 2.1 µg/mL (≈ 8.85 µM) and the “Fold Resistance of IC50 R/IC50 's” value (8226/I-R myeloma cells) was 2.1. The IC50 ([2]; Homo sapiens, read-out: IC50) was 1 µg/mL (≈ 4.21 µM), the IC50 (8226/S myeloma cells; Homo sapiens, read-out: IC50) was 1 µg/mL (≈ 4.21 µM) and the “Enhanced potency: decrease in IC50 against myeloma cell growth” value (8226/S myeloma cells; compared with imexon) was greater than 40%.
In the case of CC(=O)Oc1ccccc1NC(=O)N1CC1C#N (stereo not drawn) [AMP 424, 2-Cyanoaziridine-1-[N-(2-acetoxyphenyl)]carboxamide], the IC50 [1] is reported as greater than 10 µg/mL, the IC50 (8226/I-R myeloma cells) is reported as greater than 100 µg/mL and the IC50 [2] is reported as greater than 10 µg/mL. The IC50 (8226/S myeloma cells) was greater than 100 µg/mL and the “Antitumor effect” value (8226/S myeloma cells; parental and imexon-resistant myeloma cells) was “no antitumor effects even at high concentrations”.
For CC(=O)c1cccc(NC(=O)N2CC2C#N)c1 (stereo not drawn) [AMP 425, 2-Cyanoaziridine-1-[N-(3-acetylphenyl)]carboxamide], the IC50 [1, 3] was 2.23 µg/mL, the “Cross-resistance with imexon” value (8226/I-R myeloma cells; 8226 imexon-resistant vs parental) was “lack of significant (>50% IC50 change) cross-resistance with imexon; also recorded: no significant cross resistance” and the IC50 (8226/I-R myeloma cells; Homo sapiens, read-out: IC50) was 2.2 µg/mL (≈ 9.6 µM). The “Fold Resistance of IC50 R/IC50 's” value (8226/I-R myeloma cells) was 1.1, the IC50 ([2]; Homo sapiens, read-out: IC50) was 1.8 µg/mL (≈ 7.85 µM) and the IC50 (8226/S myeloma cells; Homo sapiens, read-out: IC50) was 1.98 µg/mL (≈ 8.64 µM). The “Potency relative to imexon” value (8226/S myeloma cells; myeloma cells) was “roughly equal potency to imexon”.
